Experimental findings from patent publication US20050197350A1, “Novel quinoline, tetrahydroquinazoline, and pyrimidine derivatives and methods of treatment related to the use thereof” (TAISHO PHARMACEUTICAL CO., LTD., priority 2003, published 2005) are described below.

The first test has as its system MCH receptors. In words: MCH receptor activity class (method not given). To be noted: MCH receptor activity class 1-3 (percent of control at 10^-7 M or IC50).
Consider `CCc1ccccc1NC(=O)NC[C@H]1CC[C@@H](Nc2nccc(N(C)C)n2)CC1` [compound 2423], for which the class is 3 (Class 3 The value of percent of control at 10^−7 M was more than 60% or the value of IC50 was more than 200 nM.).
For `CN(C)c1cc(N[C@H]2CC[C@@H](CNC(=O)Nc3ccc(Cl)cc3C(F)(F)F)CC2)nc2ccccc12` [compound 2387], the class is 3 (Class 3 The value of percent of control at 10^−7 M was more than 60% or the value of IC50 was more than 200 nM.).
`Cc1cccc(C(C)C)c1NC(=O)NC[C@H]1CC[C@@H](Nc2nccc(N(C)C)n2)CC1` [compound 2425]: the class is 1 (Class 1: The value of percent of control at 10^−7 M was less than 40% or the value of IC50 was less than 50 nM.).
For the molecule `Cc1cc(Cl)ccc1NC(=S)N[C@H]1CC[C@@H](Nc2cc(N(C)C)c3ccccc3n2)CC1` [compound 2286], the class was 3 (Class 3 The value of percent of control at 10^−7 M was more than 60% or the value of IC50 was more than 200 nM.).

The test is the same for the next values; noted with them: MCH receptor; class by percent of control at 10^-7 M or IC50.
Regarding `CN(C)c1cc(N[C@H]2CC[C@@H](CNC(=O)/C=C/c3ccc([N+](=O)[O-])cc3)CC2)nc2ccccc12` [compound 206], the class is given as 2 (Class 2: The value of percent of control at 10^−7 M was from 40% to 60% or the value of IC′50 was from 50 nM to 200 nM.).
Consider `CN(C)c1nc(N[C@H]2CC[C@@H](NC(=S)Nc3ccccc3Br)CC2)nc2c1CCCC2` [compound 1963], for which the class was 3 (Class 3 The value of percent of control at 10^−7 M was more than 60% or the value of IC50 was more than 200 nM.).
Turning to `CN(C)c1cc(N[C@H]2CC[C@@H](NC(=O)c3cccc([N+](=O)[O-])c3)CC2)nc2ccccc12` [compound 44, N-(cis-4-{[4-(dimethylamino)quinolin-2-yl]amino}cyclohexyl)-3-nitrobenzamide], the class is listed as 1 (Class 1: The value of percent of control at 10^−7 M was less than 40% or the value of IC50 was less than 50 nM.).
`CCCSc1ncccc1C(=O)N[C@H]1CC[C@@H](Nc2cc(N(C)C)c3ccccc3n2)CC1` [compound 84]: the class is 3 (Class 3 The value of percent of control at 10^−7 M was more than 60% or the value of IC50 was more than 200 nM.).
Regarding `COc1ccc(Oc2ccc([N+](=O)[O-])cc2C(=O)N[C@H]2CC[C@@H](Nc3cc(N(C)C)c4ccccc4n3)CC2)cc1` [compound 108, N-(cis-4-{[4-(dimethylamino)quinolin-2-yl]amino}cyclohexyl)-2-(4-methoxyphenoxy)-5-nitrobenzamide], the class is reported as 1 (Class 1: The value of percent of control at 10^−7 M was less than 40% or the value of IC50 was less than 50 nM.).
As for `CN(C)c1cc(N[C@H]2CC[C@@H](CNC(=O)/C=C/c3ccccc3)CC2)nc2ccccc12` [compound 153], the class is 3 (Class 3 The value of percent of control at 10^−7 M was more than 60% or the value of IC50 was more than 200 nM.).
On to `CN(C)c1nc(N[C@H]2CC[C@@H](NC(=O)Nc3cccs3)CC2)nc2c1CCCC2` [compound 1916], for which the class is reported as 3 (Class 3 The value of percent of control at 10^−7 M was more than 60% or the value of IC50 was more than 200 nM.).

Still in this test, the particulars now being: activity class 1-3: percent of control at 10^-7 M or IC50.
As to `CN(C)c1nc(N[C@H]2CC[C@@H](CNC(=O)Oc3ccc4ccccc4c3)CC2)nc2c1CCCC2` [compound 1609], the class is 3 (Class 3 The value of percent of control at 10^−7 M was more than 60% or the value of IC50 was more than 200 nM.).
`COC(=O)[C@H](Cc1ccccc1)NC(=O)N[C@H]1CC[C@@H](Nc2nc3c(c(N(C)C)n2)CCCC3)CC1` (relative stereo) [compound 1705]: the class was 3 (Class 3 The value of percent of control at 10^−7 M was more than 60% or the value of IC50 was more than 200 nM.).
For the molecule `C=CCOC(=O)N[C@H]1CC[C@@H](Nc2cc(N(C)C)c3ccccc3n2)CC1` [compound 1550], the class is recorded as 3 (Class 3 The value of percent of control at 10^−7 M was more than 60% or the value of IC50 was more than 200 nM.).

The same test, now with this note: activity class per percent of control at 10^-7 M or IC50.
On to `COc1cc(Br)cc(CNC[C@H]2CC[C@@H](Nc3cc(N(C)C)c4ccccc4n3)CC2)c1O` [compound 1129], for which the class was 2 (Class 2: The value of percent of control at 10^−7 M was from 40% to 60% or the value of IC′50 was from 50 nM to 200 nM.).

The test is the same for the next values; noted with them: class 1-3 by percent of control at 10^-7 M or IC50.
In the case of `CN(C)c1nc(N[C@H]2CC[C@@H](NC(=O)C3CCCC3)CC2)nc2c1CCCC2` [compound 561], the class was 3 (Class 3 The value of percent of control at 10^−7 M was more than 60% or the value of IC50 was more than 200 nM.).
For `CN(C)c1nc(N[C@H]2CC[C@@H](CNC(=O)c3ccc4nonc4c3)CC2)nc2c1CCCC2` [compound 585], the class is given as 3 (Class 3 The value of percent of control at 10^−7 M was more than 60% or the value of IC50 was more than 200 nM.).

The same test, now with this note: class by percent of control at 10^-7 M or IC50.
Consider `Cc1cc(C(=O)N[C@H]2CC[C@@H](Nc3nccc(N(C)C)n3)CC2)n(C)n1` [compound 321], for which the class was 3 (Class 3 The value of percent of control at 10^−7 M was more than 60% or the value of IC50 was more than 200 nM.).
In the case of `CCOc1ccccc1NC(=O)N[C@H]1CC[C@@H](Nc2cc(N(C)C)c3ccccc3n2)CC1` [compound 2142], the class was 3 (Class 3 The value of percent of control at 10^−7 M was more than 60% or the value of IC50 was more than 200 nM.).
`CN(C)c1ccnc(N[C@H]2CC[C@@H](NC(=O)c3cccc(Oc4ccccc4)c3)CC2)n1` [compound 871]: the class was 2 (Class 2: The value of percent of control at 10^−7 M was from 40% to 60% or the value of IC′50 was from 50 nM to 200 nM.).
Turning to `CCOc1cc(CNC[C@H]2CC[C@@H](Nc3nccc(N(C)C)n3)CC2)ccc1O` [compound 1280], the class is 2 (Class 2: The value of percent of control at 10^−7 M was from 40% to 60% or the value of IC′50 was from 50 nM to 200 nM.).
As for `CN(C)c1nc(N[C@H]2CC[C@@H](NC(=O)/C=C/c3cccc([N+](=O)[O-])c3)CC2)nc2c1CCCC2` [compound 959], the class is given as 3 (Class 3 The value of percent of control at 10^−7 M was more than 60% or the value of IC50 was more than 200 nM.).
On to `Cc1ccc(C(=O)CC(SCc2ccc(Cl)cc2)C(=O)N[C@H]2CC[C@@H](Nc3nccc(N(C)C)n3)CC2)cc1` (relative stereo) [compound 882], for which the class is recorded as 3 (Class 3 The value of percent of control at 10^−7 M was more than 60% or the value of IC50 was more than 200 nM.).
Consider `Cc1cc(C(=O)N[C@H]2CC[C@@H](Nc3nccc(N(C)C)n3)CC2)nn1C(C)(C)C` [compound 308], for which the class is reported as 3 (Class 3 The value of percent of control at 10^−7 M was more than 60% or the value of IC50 was more than 200 nM.).
Turning to `COc1cc(NC(=O)N[C@H]2CC[C@@H](Nc3nc4c(c(N(C)C)n3)CCCC4)CC2)cc(OC)c1` [compound 1868], the class is given as 3 (Class 3 The value of percent of control at 10^−7 M was more than 60% or the value of IC50 was more than 200 nM.).
In the case of `Cc1cc(Br)ccc1NC(=O)N[C@H]1CC[C@@H](Nc2nc3c(c(N(C)C)n2)CCCC3)CC1` [compound 1729, N-(4-bromo-2-methylphenyl)-N′-(cis-4-{[4-(dimethylamino)-5,6,7,8-tetrahydroquinazolin-2-yl]amino}cyclohexyl)urea], the class was 2 (Class 2: The value of percent of control at 10^−7 M was from 40% to 60% or the value of IC′50 was from 50 nM to 200 nM.).
On to `Cc1cc(C)c(NC(=O)N[C@H]2CC[C@@H](Nc3cc(N(C)C)c4ccccc4n3)CC2)c(C)c1` [compound 2097, N-(cis-4-{[4-(dimethylamino)quinolin-2-yl]amino}cyclohexyl)-N′-mesitylurea], for which the class was 1 (Class 1: The value of percent of control at 10^−7 M was less than 40% or the value of IC50 was less than 50 nM.).
Consider `CN(C)c1nc(N[C@H]2CC[C@@H](CNCCc3ccc(Br)cc3)CC2)nc2c1CCCC2` [compound 1498], for which the class is reported as 3 (Class 3 The value of percent of control at 10^−7 M was more than 60% or the value of IC50 was more than 200 nM.).
As to `CC(C)c1cc(Br)c(NC(=O)N[C@H]2CC[C@@H](Nc3nc4c(c(N(C)C)n3)CCCC4)CC2)c(Br)c1` [compound 1732], the class is recorded as 3 (Class 3 The value of percent of control at 10^−7 M was more than 60% or the value of IC50 was more than 200 nM.).
Take “4-({[(cis-4-{[4-(dimethylamino)pyrimidin-2-yl]amino}-cyclohexyl)methyl]amino}methyl)-2,6-dimethoxyphenol [compound 1254]”: the class is given as 1 (Class 1: The value of percent of control at 10^−7 M was less than 40% or the value of IC50 was less than 50 nM.).
Take `CN(C)c1nc(N[C@H]2CC[C@@H](NC(=O)C3CC(=O)c4ccccc43)CC2)nc2c1CCCC2` (relative stereo) [compound 960]: the class was 2 (Class 2: The value of percent of control at 10^−7 M was from 40% to 60% or the value of IC′50 was from 50 nM to 200 nM.).
As to `CN(C)c1ccnc(N[C@H]2CC[C@@H](CNC(=O)C(Cc3ccccc3)c3ccccc3)CC2)n1` (relative stereo) [compound 930, N-[(cis-4-{[4-(dimethylamino)pyrimidin-2-yl]amino}cyclohexyl)methyl]-2,3-diphenylpropanamide], the class is 2 (Class 2: The value of percent of control at 10^−7 M was from 40% to 60% or the value of IC′50 was from 50 nM to 200 nM.).

The test is the same for the next values; noted with them: class by percent of control at 10^−7 M or IC50.
As to `COc1ccc(C(=O)N[C@H]2CC[C@@H](Nc3nc(C)cc(N(C)C)n3)CC2)cc1` [compound 2956], the class is reported as 3 (Class 3 The value of percent of control at 10^−7 M was more than 60% or the value of IC50 was more than 200 nM.).
For the molecule `Cc1cc(N(C)C)nc(NC[C@H]2CC[C@@H](NC(=O)c3cc(Cl)cc(Cl)c3)CC2)n1` [compound 2748], the class was 2 (Class 2: The value of percent of control at 10^−7 M was from 40% to 60% or the value of IC′50 was from 50 nM to 200 nM.).
Regarding `Cc1cnc(N[C@H]2CC[C@@H](NC(=O)CN(C)c3ccc(F)cc3)CC2)nc1N(C)C` [compound 2944], the class was 1 (Class 1: The value of percent of control at 10^−7 M was less than 40% or the value of IC50 was less than 50 nM.).
With `Cc1cc(N(C)C)nc(N[C@H]2CC[C@@H](NC(=O)c3ccc(Cl)cc3)CC2)n1` [compound 2986], the class was 1 (Class 1: The value of percent of control at 10^−7 M was less than 40% or the value of IC50 was less than 50 nM.).
